From the supplement of paper PMC10307832

Key:
XMD8-85 + Foretinib = compound: CN1CCN(CC1)C2=CC(=C(C=C2)NC3=NC=C4C(=N3)N(C5=CC=CC=C5C(=O)N4C)C)OC [XMD8-85] + COc1cc2c(Oc3ccc(NC(=O)C4(C(=O)Nc5ccc(F)cc5)CC4)cc3F)ccnc2cc1OCCCN1CCOCC1 [Foretinib] (partner 0.25 µM); assay: relative viability (nuclei count vs DMSO), 5 days (fraction); higher = more cells survive
In short: (§1)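 Relative viability is defined as nuclei in treated wells over nuclei in vehicle wells. Duplicate plates were run and medians reported. Lung cancer cell lines in 1536-well plates were dosed by pin tool one day after seeding, with one drug or with a fixed anchor-drug dose plus five library-drug doses (not always all listed) in √10 steps, and nuclei were counted after 5 days.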

4EGI-1 + Tozasertib = compound: O=C(O)C(Cc1ccccc1[N+](=O)[O-])=NNc1nc(-c2ccc(Cl)c(Cl)c2)cs1 (mixture of isomers) [4EGI-1] + Cc1cc(Nc2cc(N3CCN(C)CC3)nc(Sc3ccc(NC(=O)C4CC4)cc3)n2)n[nH]1 [Tozasertib] (partner 0.1 µM); assay: as above
In short: as §1

| Cell Line | relative viability (XMD8-85 + Foretinib; first compound 0.08 µM) | relative viability (XMD8-85 + Foretinib; first compound 0.253 µM) | relative viability (XMD8-85 + Foretinib; first compound 0.8 µM) | relative viability (XMD8-85 + Foretinib; first compound 2.53 µM) | relative viability (XMD8-85 + Foretinib; first compound 8 µM) | relative viability (4EGI-1 + Tozasertib; first compound 0.5 µM) | relative viability (4EGI-1 + Tozasertib; first compound 1.581 µM) | relative viability (4EGI-1 + Tozasertib; first compound 5 µM) | relative viability (4EGI-1 + Tozasertib; first compound 15.81 µM) | relative viability (4EGI-1 + Tozasertib; first compound 50 µM) |
| --- | --- | --- | --- | --- | --- | --- | --- | --- | --- | --- |
| NCI-H1755 | 0.873 | 0.921 | 0.88 | 0.97 | 0.783 | 0.625 | 0.569 | 0.525 | 0.486 | 0.355 |
| NCI-H1793 | – | 0.668 | 0.681 | 0.783 | 0.594 | 0.318 | 0.364 | 0.391 | 0.247 | 0.2 |
| NCI-H1915 | 1.16 | 1.1 | 1.16 | 1.02 | 0.83 | 0.448 | 0.327 | 0.421 | 0.326 | 0.201 |
| NCI-H1944 | – | 1.04 | 0.898 | 0.836 | 0.571 | 0.262 | – | 0.241 | 0.192 | 0.202 |
| NCI-H1975 | 1.05 | 0.925 | 0.917 | 0.779 | 0.561 | 0.773 | 0.653 | 0.785 | 0.523 | 0.179 |
| NCI-H1993 | 0.742 | 0.894 | 0.806 | 0.706 | 0.61 | 0.552 | 0.627 | 0.563 | 0.511 | 0.492 |
| NCI-H2009 | 1.24 | 1.25 | 1.23 | 1.08 | 0.516 | 0.813 | 0.709 | 0.784 | 0.697 | 0.211 |
| NCI-H2023 | 0.865 | 0.804 | 0.961 | 0.699 | 0.391 | 0.377 | – | 0.38 | 0.259 | 0.142 |
| NCI-H2085 | 0.902 | 0.854 | 0.823 | 0.751 | 0.563 | 0.835 | 0.859 | 0.836 | 0.724 | 0.775 |
| NCI-H2087 | 1.34 | 1.11 | 1.32 | 1.15 | 0.682 | 0.272 | 0.261 | 0.227 | 0.164 | 0.167 |
| NCI-H2126 | 1.07 | 1.03 | 1.13 | 0.996 | 0.935 | 1 | – | 0.861 | 0.822 | 0.741 |
| NCI-H2170 | 1.04 | 1.01 | 0.985 | 1.02 | 0.965 | 0.829 | 0.728 | 0.628 | 0.617 | 0.314 |
| NCI-H2228 | 0.88 | 0.758 | 0.789 | 0.816 | 0.423 | 0.276 | 0.273 | 0.248 | 0.285 | 0.134 |
| NCI-H2342 | 0.993 | 0.938 | 1.15 | 0.971 | 0.946 | 0.549 | 0.598 | 0.655 | 0.544 | 0.511 |
| NCI-H2347 | 0.75 | 0.836 | 0.829 | 1.07 | 0.758 | 0.589 | – | 0.557 | 0.46 | 0.467 |
| NCI-H2405 | 1.07 | 1.08 | 1.07 | 1.04 | 0.984 | 0.723 | 0.645 | 0.815 | 0.789 | 0.839 |
